From ChEMBL document CHEMBL1134914, “Acyl dipeptides as reversible caspase inhibitors. Part 1: initial lead optimization” (Bioorg Med Chem Lett, 2002)

Columns and labels:
[1] = target: T1, Caspase-8 (Homo sapiens, UniProt Q14790); assay: Inhibitory concentration of compound required against Caspase-8 compared to acylated dipeptides
[2] = target: T2, Caspase-7 (Homo sapiens, UniProt P55210); assay: Inhibitory concentration of compound required against Caspase-7 compared to acylated dipeptides
T2 sequence (P55210 whole entry): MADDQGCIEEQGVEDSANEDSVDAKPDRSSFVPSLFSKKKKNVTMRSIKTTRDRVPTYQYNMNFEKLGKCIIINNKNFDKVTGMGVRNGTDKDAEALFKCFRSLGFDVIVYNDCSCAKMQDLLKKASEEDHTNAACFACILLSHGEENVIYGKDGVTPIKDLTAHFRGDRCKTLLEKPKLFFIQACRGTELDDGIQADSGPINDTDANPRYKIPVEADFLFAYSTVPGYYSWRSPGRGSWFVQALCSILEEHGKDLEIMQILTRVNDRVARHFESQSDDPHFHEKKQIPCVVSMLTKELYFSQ

[3] = target: Caspase-1 (Mus musculus) (UniProt P29452); assay: Inhibitory concentration of compound required against Caspase-1 compared to acylated dipeptides
[4] = target: T3, Caspase-3 (Homo sapiens, UniProt P42574); assay: Inhibitory concentration of compound required against Caspase-3 compared to acylated dipeptides
T3 sequence (P42574 whole entry): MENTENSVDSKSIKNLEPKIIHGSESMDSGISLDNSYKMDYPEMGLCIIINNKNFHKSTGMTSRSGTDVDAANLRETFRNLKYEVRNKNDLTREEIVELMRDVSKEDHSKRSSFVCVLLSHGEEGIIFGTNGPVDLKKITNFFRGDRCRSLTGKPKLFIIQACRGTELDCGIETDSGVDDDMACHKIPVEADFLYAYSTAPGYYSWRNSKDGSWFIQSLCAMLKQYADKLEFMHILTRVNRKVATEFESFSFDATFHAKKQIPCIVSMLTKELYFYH

[5] = target: T4, Caspase-6 (Homo sapiens, UniProt P55212); assay: Inhibitory concentration required against caspase-6
T4 sequence (P55212 whole entry): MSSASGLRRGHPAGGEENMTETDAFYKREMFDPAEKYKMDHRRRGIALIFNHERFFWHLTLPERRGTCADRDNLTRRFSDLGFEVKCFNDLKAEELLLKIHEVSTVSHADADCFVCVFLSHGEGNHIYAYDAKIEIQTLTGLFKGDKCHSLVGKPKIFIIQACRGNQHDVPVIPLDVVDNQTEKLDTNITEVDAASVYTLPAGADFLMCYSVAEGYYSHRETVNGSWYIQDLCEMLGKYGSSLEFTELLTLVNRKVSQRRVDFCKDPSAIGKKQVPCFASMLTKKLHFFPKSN

[6] = target: T3, Caspase-3; assay: Inhibitory concentration against caspase-3
[7] = target: Caspase-1 (Mus musculus) (UniProt P29452)
[8] = target: T1, Caspase-8; assay: Inhibitory concentration against caspase-8
[9] = target: T4, Caspase-6; assay: Inhibitory concentration of compound required against Caspase-6 compared to acylated dipeptides
[10] = target: T2, Caspase-7; assay: Inhibitory concentration against caspase-7

Sequence of Caspase-1 (Mus musculus) (P29452 whole entry, looked up): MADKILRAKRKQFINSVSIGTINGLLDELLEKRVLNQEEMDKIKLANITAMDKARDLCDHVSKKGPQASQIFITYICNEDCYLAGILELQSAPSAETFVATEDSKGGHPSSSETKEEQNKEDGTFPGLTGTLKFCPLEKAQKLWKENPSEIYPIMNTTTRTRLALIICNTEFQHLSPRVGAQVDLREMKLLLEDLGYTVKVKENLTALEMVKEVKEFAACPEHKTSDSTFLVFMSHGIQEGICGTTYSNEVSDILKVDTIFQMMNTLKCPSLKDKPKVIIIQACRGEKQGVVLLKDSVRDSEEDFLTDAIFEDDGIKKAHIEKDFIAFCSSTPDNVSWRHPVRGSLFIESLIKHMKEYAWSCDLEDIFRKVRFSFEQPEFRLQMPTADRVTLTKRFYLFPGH
T1 sequence (Q14790 217-374 limits assumed): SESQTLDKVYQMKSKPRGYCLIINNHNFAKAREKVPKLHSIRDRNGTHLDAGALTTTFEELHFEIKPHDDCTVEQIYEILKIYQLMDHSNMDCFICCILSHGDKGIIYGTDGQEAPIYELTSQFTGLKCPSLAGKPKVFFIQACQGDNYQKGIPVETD
T1 sequence (Q14790 385-479 limits assumed): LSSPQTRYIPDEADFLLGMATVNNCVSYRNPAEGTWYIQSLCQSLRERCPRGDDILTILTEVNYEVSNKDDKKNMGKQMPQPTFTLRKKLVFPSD

| SMILES | IC50 [1] [µM] | IC50 [2] [µM] | IC50 [3] [µM] | IC50 [4] [µM] | IC50 [5] [µM] | IC50 [6] [µM] | IC50 [7] [µM] | IC50 [8] [µM] | IC50 [9] [µM] | IC50 [10] [µM] |
| --- | --- | --- | --- | --- | --- | --- | --- | --- | --- | --- |
| CC(C)C[C@H](NC(=O)[C@H](CCC(=O)O)NC(=O)OCc1ccccc1)C(=O)N[C@H]1CC(=O)OC1O (some centres undefined) | 0.03 | 0.01 | 0.0065 | 0.0023 | – | – | – | – | – | – |
| CC(C)C[C@H](NC(=O)Cc1ccc(-c2ccccc2)cc1)C(=O)N[C@H]1CC(=O)OC1O (some centres undefined) | – | > 10 | – | – | > 10 | 5.06 | 7.43 | > 10 | – | – |
| CC(=O)N[C@@H](C(=O)O)C(=O)N[C@@H](CCC(=O)O)C(=O)N[C@H](C(=O)N[C@H]1CC(=O)OC1O)C(C)C (some centres undefined) | 0.08 | 0.01 | 0.05 | 0.0035 | – | – | – | – | 0.01 | – |
| CC(C)C[C@H](NC(=O)COc1ccc2ccccc2c1)C(=O)N[C@H]1CC(=O)OC1O (some centres undefined) | 10 | 8.87 | 10 | 0.94 | 18.6 | 0.944 | 10 | > 10 | 18.6 | 8.87 |
| CC(C)C[C@H](NC(=O)COc1ccccc1Cc1ccccc1)C(=O)N[C@H]1CC(=O)OC1O (some centres undefined) | – | – | – | – | 10.1 | 0.49 | 0.521 | 6.05 | – | 3.36 |
| CC(C)C[C@H](NC(=O)CCCc1ccc2ccccc2c1)C(=O)N[C@H]1CC(=O)OC1O (some centres undefined) | – | – | – | – | 14.5 | 2.76 | 1.8 | > 50 | – | 18.2 |
| CC(C)C[C@H](NC(=O)COc1ccc(-c2ccccc2)cc1)C(=O)N[C@H]1CC(=O)OC1O (some centres undefined) | – | – | – | – | 20.5 | 0.763 | 1.9 | 7.53 | – | 12 |
| CC(C)C[C@H](NC(=O)c1ccc2ccccc2c1)C(=O)N[C@H]1CC(=O)OC1O (some centres undefined) | – | – | – | – | > 10 | 6.74 | 1.74 | > 10 | – | > 10 |
| CC(C)[C@@H](NC(=O)OCc1ccccc1)C(=O)C[C@H]1CC(=O)OC1O (some centres undefined) | – | – | – | – | 10 | 1.75 | 5.85 | 12 | – | 6.81 |
| CC(C)C[C@H](NC(=O)[C@H](Cc1ccccc1)NC(=O)OCc1ccccc1)C(=O)N[C@H]1CC(=O)OC1O (some centres undefined) | 8.7 | 0.68 | 0.043 | 0.137 | – | – | – | – | 2.53 | – |
| CC(C)C[C@@H](NC(=O)OCc1ccccc1)C(=O)C[C@H]1CC(=O)OC1O (some centres undefined) | – | – | – | – | 14 | 3.47 | 18.8 | 50 | – | 21.9 |
| CC(C)C[C@H](NC(=O)COc1c(Cl)cc(Cl)c2ccccc12)C(=O)N[C@H]1CC(=O)OC1O (some centres undefined) | – | – | – | – | 21.4 | 0.357 | 0.141 | 3.04 | – | 3.61 |
| CC(C)C[C@H](Nc1ccccc1)C(=O)N[C@H]1CC(=O)OC1O (some centres undefined) | – | – | – | – | > 50 | 3.4 | > 10 | > 10 | – | > 10 |
| CC(C)C[C@H](NC(=O)COc1ccccc1OCc1ccccc1)C(=O)N[C@H]1CC(=O)OC1O (some centres undefined) | – | – | – | – | 9.75 | 0.222 | 2.4 | 4.34 | – | 2.2 |
| CC(C)C[C@H](NC(=O)CC(=O)c1cccc2ccccc12)C(=O)N[C@H]1CC(=O)OC1O (some centres undefined) | – | – | – | – | 11.8 | 0.967 | 0.408 | 11.2 | – | 11.3 |
| CC(C)C[C@H](NC(=O)CSc1ccc2ccccc2c1)C(=O)N[C@H]1CC(=O)OC1O (some centres undefined) | – | – | – | – | 3.16 | 0.269 | 0.792 | 11 | – | 2.52 |
